Laboratory results from ChEMBL document CHEMBL1127295, “Development of a model for the delta opioid receptor pharmacophore. 2. Conformationally restricted Phe3 replacements in the cyclic delta receptor selective tetrapeptide Tyr-c[D-Cys-Phe-D-Pen]OH (JOM-13)” (J Med Chem, 1994).

What was measured:
Mu-type opioid receptor [1] = molecular target: T1, Mu-type opioid receptor (Cavia porcellus, UniProt P97266); test: Agonist activity was assessed in an guinea pig ileum (GPI) smooth muscle bioassay; type: functional, tissue-based
Mu-type opioid receptor [2] = molecular target: T1, Mu-type opioid receptor; test: Binding affinity against mu opioid receptor using [3H]DAMGO in guinea pig ileum; type: tissue-based
[3] = molecular target: T2, Delta-type opioid receptor (Mus musculus, UniProt P32300); test: Agonist activity was assessed in mouse vas deferens (MVD) smooth muscle bioassay; type: functional, tissue-based, Muscle tissue
[4] = molecular target: T2, Delta-type opioid receptor; test: Binding affinity for delta opioid receptor using [3H]DPDPE from mouse vas deferens

T2 sequence (P32300 whole entry): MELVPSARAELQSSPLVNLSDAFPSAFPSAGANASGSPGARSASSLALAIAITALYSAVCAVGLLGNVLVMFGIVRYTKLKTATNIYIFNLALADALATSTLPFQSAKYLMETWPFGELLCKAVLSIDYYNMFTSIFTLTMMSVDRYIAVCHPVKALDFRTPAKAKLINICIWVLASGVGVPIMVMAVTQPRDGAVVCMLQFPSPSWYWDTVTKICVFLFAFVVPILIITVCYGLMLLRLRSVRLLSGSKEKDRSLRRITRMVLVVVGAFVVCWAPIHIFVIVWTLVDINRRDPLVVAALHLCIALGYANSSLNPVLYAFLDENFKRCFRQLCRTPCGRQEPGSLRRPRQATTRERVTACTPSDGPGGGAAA
T1 sequence (P97266 whole entry): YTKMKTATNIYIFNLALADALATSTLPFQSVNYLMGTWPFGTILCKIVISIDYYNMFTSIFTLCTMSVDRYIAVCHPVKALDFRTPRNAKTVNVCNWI

Row | SMILES | IC50 (Mu-type opioid receptor [1]) [µM] | Ki (Mu-type opioid receptor [2]) [µM] | IC50 [3] [µM] | Ki [4] [µM]
1 | C[C@@H](c1ccccc1)[C@H]1NC(=O)[C@@H](NC(=O)[C@@H](N)Cc2ccc(O)cc2)CSSC(C)(C)[C@@H](C(=O)O)NC1=O | > 30 | > 10 | 1.11 | 0.237
2 | CC1(C)SSC[C@H](NC(=O)[C@@H](N)Cc2ccc(O)cc2)C(=O)N[C@H](Cc2ccccc2)C(=O)N[C@@H]1C(=O)O (stereo in doubt; 3) |  |  | 0.0518 | 0.0123
3 | CC1(C)SSC[C@H](NC(=O)[C@@H](N)Cc2ccc(O)cc2)C(=O)N[C@H](Cc2ccccc2)C(=O)N[C@@H]1C(=O)O (stereo in doubt; 4) |  |  | 0.00972 | 0.0048
4 | CC1(C)SSC[C@H](NC(=O)[C@@H](N)Cc2ccc(O)cc2)C(=O)N[C@H](Cc2ccccc2)C(=O)N[C@@H]1C(=O)O (stereo in doubt; 5) |  |  | 0.00413 | 0.00152
5 | CC1(C)SSC[C@H](NC(=O)[C@@H](N)Cc2ccc(O)cc2)C(=O)N[C@H](Cc2ccccc2)C(=O)N[C@@H]1C(=O)O (stereo in doubt; 6) |  |  |  | 0.07
